The values below are quoted from earlier work in US20260295002A1, “GASTROINTESTINAL RETENTIVE FORMULATIONS OF ECHINOCANDINS” (The Cleveland Clinic Foundation, priority 2023, published 2026).

Structures are written as SMILES. Counter-ions that a name gives are not always drawn.

For the series the following is noted: background statement.

On to `CC[C@H](C)C[C@H](C)CCCCCCCCC(=O)N[C@H]1C[C@@H](O)[C@@H](NCCN)NC(=O)[C@@H]2[C@@H](O)CCN2C(=O)[C@H]([C@H](O)CCN)NC(=O)[C@H]([C@H](O)[C@@H](O)c2ccc(O)cc2)NC(=O)[C@@H]2C[C@@H](O)CN2C(=O)[C@H]([C@@H](C)O)NC1=O` [caspofungin acetate, 1-[(4R,5S)-5-[(2-aminoethyl)amino]-N2-(10,12-dimethyl-1-oxotetradecyl)-4-hydroxy-L-ornithine]-5-[(3R)-3-hydroxy-L-ornithine]pneumocandin B0 diacetate (salt)], for which the oral bioavailability result is listed as “poor oral bioavailability”.

`CCC(C)CC(C)CCCCCCCCC(=O)N[C@H]1C[C@@H](O)[C@@H](NCCN)NC(=O)[C@@H]2[C@@H](O)CCN2C(=O)[C@H]([C@H](O)CCN)NC(=O)[C@H]([C@H](O)[C@@H](O)c2ccc(O)cc2)NC(=O)[C@@H]2C[C@@H](O)CN2C(=O)[C@H]([C@@H](C)O)NC1=O` (some centres unmarked) [Caspofungin]: the oral bioavailability result is “poor oral bioavailability”.
